target: T1, Cloned Human Dopamine D3 Receptors (Homo sapiens, UniProt P35462); test: [N-Methyl-3H]Spiroperidol binding to cloned human dopamine D3 receptors; details: Table 2; unit inferred; read-out: d3Ki
T1 construct: expressed in transfected cells; membrane homogenate
Procedure, shortened: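 Membranes from CHO cells stably expressing human D3 receptor, homogenised in 10% DMSO and stored at -80°C. Binding uses [N-methyl-3H]spiroperidol in Tris buffer, pH 7.7.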

T1 sequence (P35462 whole entry): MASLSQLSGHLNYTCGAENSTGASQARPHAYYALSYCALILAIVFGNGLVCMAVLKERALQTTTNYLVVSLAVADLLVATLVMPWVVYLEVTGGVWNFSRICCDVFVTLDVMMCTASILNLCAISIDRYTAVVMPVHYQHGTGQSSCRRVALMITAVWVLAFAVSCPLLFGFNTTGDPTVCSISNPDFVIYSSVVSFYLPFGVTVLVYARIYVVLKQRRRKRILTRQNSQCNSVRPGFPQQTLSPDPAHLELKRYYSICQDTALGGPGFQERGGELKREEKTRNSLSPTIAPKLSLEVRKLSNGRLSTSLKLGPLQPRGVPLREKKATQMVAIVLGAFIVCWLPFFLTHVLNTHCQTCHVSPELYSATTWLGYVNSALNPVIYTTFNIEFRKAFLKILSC

| Structure (SMILES) | Ki [nM] |
| --- | --- |
| O=C(CCCN1CCCN(c2csc3cc(F)ccc23)CC1)NC1CCCC1 [compound 826840] | 11 |
| CC1CCCC(NC(=O)[C@@H]2C[C@H]2CN2CCN(c3csc4cc(C(F)(F)F)ccc34)CC2)C1 (stereo partly shown) [compound 826884] | 15.2 |
| CN(C(=O)[C@@H]1C[C@H]1CN1CCN(c2csc3cc(C(F)(F)F)ccc23)CC1)C1CCCCC1 [compound 826885] | 20.3 |
| O=C([C@@H]1C[C@H]1CN1CCN(c2csc3cc(C(F)(F)F)ccc23)CC1)N(c1ccccc1)C1CCCCC1 [compound 826886] | 136 |
| C[C@H]1CC[C@H](NC(=O)CCCN2CCN(c3csc4cc(C(F)(F)F)ccc34)CC2Cc2ccccc2)CC1 (stereo partly shown) [compound 827055] | 792 |

same assay, conditions: Table 2 part the 10th table; read-out: d3Ki

| Structure (SMILES) | Ki [nM] |
| --- | --- |
| CC1(C)CCCN(C(=O)CCCN2CCCN(c3csc4cc(F)ccc34)CC2)C1 [compound 826837] | 8.8 |
| CC1CC(C)CN(C(=O)CCCN2CCCN(c3csc4cc(F)ccc34)CC2)C1 (stereo not shown) [compound 826838] | 14.6 |
| O=C(CCCN1CCCN(c2csc3cc(F)ccc23)CC1)N1CCCC1 [compound 826839] | 9.37 |
| CC1CCCN1C(=O)CCCN1CCCN(c2csc3cc(F)ccc23)CC1 (stereo not shown) [compound 826842] | 3.66 |
| CN(C)C1CCN(C(=O)CCCN2CCCN(c3csc4cc(F)ccc34)CC2)C1 (stereo not shown) [compound 826843] | 126 |
| CN(C)C1CCN(C(=O)CCCN2CCN(c3csc4cc(F)ccc34)CC2)C1 (stereo not shown) [compound 826863] | 26.6 |
| CCOC(=O)C1CCN(C(=O)[C@@H]2C[C@H]2CN2CCCN(c3csc4cc(F)ccc34)CC2)CC1 [compound 826871] | 10.7 |
| CC1CCCCN1C(=O)[C@@H]1C[C@H]1CN1CCCN(c2csc3cc(F)ccc23)CC1 (stereo partly shown) [compound 826873] | 1.31 |
| CC1CCN(C(=O)[C@@H]2C[C@H]2CN2CCCN(c3csc4cc(F)ccc34)CC2)CC1 [compound 826874] | 1.72 |
| CC1CCCN(C(=O)[C@@H]2C[C@H]2CN2CCCN(c3csc4cc(F)ccc34)CC2)C1 (stereo partly shown) [compound 826875] | 2.79 |
| O=C([C@@H]1C[C@H]1CN1CCCN(c2csc3cc(F)ccc23)CC1)N1CCC(N2CCCC2)CC1 [compound 826876] | 2.72 |
| CC1(C)CCCN(C(=O)[C@@H]2C[C@H]2CN2CCCN(c3csc4cc(F)ccc34)CC2)C1 [compound 826877] | 4.72 |
| CC1CC(C)CN(C(=O)[C@@H]2C[C@H]2CN2CCCN(c3csc4cc(F)ccc34)CC2)C1 (stereo partly shown) [compound 826878] | 7.95 |
| O=C([C@@H]1C[C@H]1CN1CCCN(c2csc3cc(F)ccc23)CC1)N1CCCC1 [compound 826879] | 1.59 |
| CC1CCCN1C(=O)[C@@H]1C[C@H]1CN1CCCN(c2csc3cc(F)ccc23)CC1 (stereo partly shown) [compound 826882] | 2.93 |
| CN(C)C1CCN(C(=O)[C@@H]2C[C@H]2CN2CCCN(c3csc4cc(F)ccc34)CC2)C1 (stereo partly shown) [compound 826883] | 13.4 |
| CC1(C)CC2CC(C)(CN2C(=O)[C@@H]2C[C@H]2CN2CCN(c3csc4cc(C(F)(F)F)ccc34)CC2)C1 (stereo partly shown) [compound 826896] | 89.5 |
| CCOC(=O)C1CCN(C(=O)[C@@H]2C[C@H]2CN2CCN(c3csc4cc(C(F)(F)F)ccc34)CC2)CC1 [compound 826899] | 45.5 |
| O=C([C@@H]1C[C@H]1CN1CCN(c2csc3cc(C(F)(F)F)ccc23)CC1)N1CCC(O)(c2ccc(Cl)cc2)CC1 [compound 826900] | 181 |
| O=C([C@@H]1C[C@H]1CN1CCN(c2csc3cc(C(F)(F)F)ccc23)CC1)N1CCCC(O)C1 (stereo partly shown) [compound 826902] | 13.1 |
| O=C([C@@H]1C[C@H]1CN1CCN(c2csc3cc(C(F)(F)F)ccc23)CC1)N1CCC(n2c(=O)[nH]c3ccccc32)CC1 [compound 826903] | 7.47 |
| NC(=O)C1CCCN(C(=O)[C@@H]2C[C@H]2CN2CCN(c3csc4cc(C(F)(F)F)ccc34)CC2)C1 (stereo partly shown) [compound 826904] | 39.4 |

| Structure (SMILES) | Ki [nM] |
| --- | --- |
| CC1CCCCN1C(=O)[C@@H]1C[C@H]1CN1CCN(c2csc3cc(C(F)(F)F)ccc23)CC1 (stereo partly shown) [compound 826905] | 14.5 |
| CC1CCN(C(=O)[C@@H]2C[C@H]2CN2CCN(c3csc4cc(C(F)(F)F)ccc34)CC2)CC1 [compound 826906] | 39.5 |
| CC1CCCN(C(=O)[C@@H]2C[C@H]2CN2CCN(c3csc4cc(C(F)(F)F)ccc34)CC2)C1 (stereo partly shown) [compound 826907] | 18.8 |
| CCN(CC)C(=O)C1CCCN(C(=O)[C@@H]2C[C@H]2CN2CCN(c3csc4cc(C(F)(F)F)ccc34)CC2)C1 (stereo partly shown) [compound 826908] | 7.06 |
| CCOC(=O)C1CCCN(C(=O)[C@@H]2C[C@H]2CN2CCN(c3csc4cc(C(F)(F)F)ccc34)CC2)C1 (stereo partly shown) [compound 826909] | 28.9 |
| O=C([C@@H]1C[C@H]1CN1CCN(c2csc3cc(C(F)(F)F)ccc23)CC1)N1CCC(N2CCCCC2)CC1 [compound 826910] | 17.5 |
| O=C([C@@H]1C[C@H]1CN1CCN(c2csc3cc(C(F)(F)F)ccc23)CC1)N1CCC(O)(c2ccccc2)CC1 [compound 826911] | 93 |
| CC1(C)CCCN(C(=O)[C@@H]2C[C@H]2CN2CCN(c3csc4cc(C(F)(F)F)ccc34)CC2)C1 [compound 826912] | 58.5 |
| CC1CC(C)CN(C(=O)[C@@H]2C[C@H]2CN2CCN(c3csc4cc(C(F)(F)F)ccc34)CC2)C1 (stereo partly shown) [compound 826913] | 86.1 |
| O=C([C@@H]1C[C@H]1CN1CCN(c2csc3cc(C(F)(F)F)ccc23)CC1)N1CCC(O)C1 (stereo partly shown) [compound 826914] | 101 |
| O=C([C@@H]1C[C@H]1CN1CCN(c2csc3cc(C(F)(F)F)ccc23)CC1)N1CCC[C@H]1CNc1ccccc1 [compound 826916] | 157 |
| COC[C@@H]1CCCN1C(=O)[C@@H]1C[C@H]1CN1CCN(c2csc3cc(C(F)(F)F)ccc23)CC1 [compound 826917] | 196 |
| CC1CCCN1C(=O)[C@@H]1C[C@H]1CN1CCN(c2csc3cc(C(F)(F)F)ccc23)CC1 (stereo partly shown) [compound 826918] | 30.3 |
| Cc1cccc(C)c1NC[C@@H]1CCCN1C(=O)[C@@H]1C[C@H]1CN1CCN(c2csc3cc(C(F)(F)F)ccc23)CC1 [compound 826919] | 329 |
| O=C([C@@H]1C[C@H]1CN1CCN(c2csc3cc(C(F)(F)F)ccc23)CC1)N1CCC[C@H]1CO [compound 826920] | 67.6 |
| CC(=O)N(C)C1CCN(C(=O)[C@@H]2C[C@H]2CN2CCN(c3csc4cc(C(F)(F)F)ccc34)CC2)C1 (stereo partly shown) [compound 826921] | 183 |
| CC(=O)N[C@@H]1CCN(C(=O)[C@@H]2C[C@H]2CN2CCN(c3csc4cc(C(F)(F)F)ccc34)CC2)C1 [compound 826922] | 183 |
| COC[C@H]1CCCN1C(=O)[C@@H]1C[C@H]1CN1CCN(c2csc3cc(C(F)(F)F)ccc23)CC1 [compound 826923] | 141 |
| CN(C)[C@H]1CCN(C(=O)[C@@H]2C[C@H]2CN2CCN(c3csc4cc(C(F)(F)F)ccc34)CC2)C1 [compound 826926] | 86.5 |
| CC1CCC(C)N1C(=O)[C@@H]1C[C@H]1CN1CCN(c2csc3cc(C(F)(F)F)ccc23)CC1 (stereo partly shown) [compound 826928] | 11.2 |
| O=C(CCCN1CCN(c2csc3cc(C(F)(F)F)ccc23)CC1Cc1ccccc1)N1CCC(O)CC1 (stereo not shown) [compound 827063] | 373 |

same assay, conditions: d3Ki, Table 2 part the 10th table

| Structure (SMILES) | Ki [nM] |
| --- | --- |
| O=C1CCN(C(=O)[C@@H]2C[C@H]2CN2CCN(c3csc4cc(C(F)(F)F)ccc34)CC2)CC1 [compound 826901] | 42.4 |

same assay, conditions: read-out: d3Ki

| Structure (SMILES) | Ki [nM] |
| --- | --- |
| C[C@H]1CC[C@H](NC(=O)[C@@H]2C[C@H]2CN2CCCN(c3csc4cc(F)ccc34)CC2)CC1 [compound 826864] | 2.16 |
| CCOC(=O)[C@H]1CC[C@H](NC(=O)[C@@H]2C[C@H]2CN2CCCN(c3csc4cc(F)ccc34)CC2)CC1 [compound 826865] | 3.68 |
| CC[C@H]1CC[C@H](NC(=O)[C@@H]2C[C@H]2CN2CCCN(c3csc4cc(F)ccc34)CC2)CC1 [compound 826866] | 1.24 |
| CC1CCCC(NC(=O)[C@@H]2C[C@H]2CN2CCCN(c3csc4cc(F)ccc34)CC2)C1 (stereo partly shown) [compound 826867] | 1.89 |
| CN(C(=O)[C@@H]1C[C@H]1CN1CCCN(c2csc3cc(F)ccc23)CC1)C1CCCCC1 [compound 826868] | 3.49 |
| CCN(C(=O)[C@@H]1C[C@H]1CN1CCCN(c2csc3cc(F)ccc23)CC1)C1CCCCC1 [compound 826869] | 6.75 |
| O=C([C@@H]1C[C@H]1CN1CCCN(c2csc3cc(F)ccc23)CC1)N(CCO)C1CCCCC1 [compound 826870] | 7.4 |
| O=C(NC1CCCC1)[C@@H]1C[C@H]1CN1CCCN(c2csc3cc(F)ccc23)CC1 [compound 826880] | 2.86 |
| O=C(NC1CCCCC1)[C@@H]1C[C@H]1CN1CCCN(c2csc3cc(F)ccc23)CC1 [compound 826881] | 2.38 |
| O=C(NNC1CCCCC1)[C@@H]1C[C@H]1CN1CCN(c2csc3cc(C(F)(F)F)ccc23)CC1 [compound 826887] | 83.8 |
| CC1(C)C2CCC1(C)C(NC(=O)[C@@H]1C[C@H]1CN1CCN(c3csc4cc(C(F)(F)F)ccc34)CC1)C2 (stereo partly shown) [compound 826890] | 38 |
| CC(C)[C@@H]1CC[C@@H](C)C[C@H]1NC(=O)[C@@H]1C[C@H]1CN1CCN(c2csc3cc(C(F)(F)F)ccc23)CC1 [compound 826891] | 263 |
| O=C(N[C@H]1CCCC[C@@H]1O)[C@@H]1C[C@H]1CN1CCN(c2csc3cc(C(F)(F)F)ccc23)CC1 [compound 826892] | 25.9 |
| CC1CC(NC(=O)[C@@H]2C[C@H]2CN2CCN(c3csc4cc(C(F)(F)F)ccc34)CC2)CC(C)(C)C1 (stereo partly shown) [compound 826893] | 20.4 |
| CCN(C(=O)[C@@H]1C[C@H]1CN1CCN(c2csc3cc(C(F)(F)F)ccc23)CC1)C1CCCCC1 [compound 826894] | 35 |
| O=C([C@@H]1C[C@H]1CN1CCN(c2csc3cc(C(F)(F)F)ccc23)CC1)N(CCO)C1CCCCC1 [compound 826895] | 48.8 |
| CCOC(=O)[C@H]1CCCC[C@H]1NC(=O)[C@@H]1C[C@H]1CN1CCN(c2csc3cc(C(F)(F)F)ccc23)CC1 [compound 826897] | 128 |
| CCOC(=O)[C@H]1CCCC[C@@H]1NC(=O)[C@@H]1C[C@H]1CN1CCN(c2csc3cc(C(F)(F)F)ccc23)CC1 [compound 826898] | 50.5 |
